Results: US9096565B2, “Inhibitors of histone deacetylase” (MethylGene Inc., priority 2007, dated 2015)

Target: one or more of HDAC-4, HDAC-5, HDAC-6, HDAC-7, HDAC-8, HDAC-9, HDAC-10 and HDAC-11
Assay: Inhibition of histone deacetylase enzymatic activity (summary statement over isoforms)
Format: biochemical
Conditions: Table 3, selected examples; HDAC isoform not given
Summary of the method: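 HDAC enzyme mix with compound was preincubated 5 min at room temperature. Reaction was started at 37 °C with Boc-Lys(trifluoroacetyl)-AMC substrate and run 20-30 min. It was stopped with trypsin (1 mg/mL) plus a known HDAC inhibitor to release the fluorogenic AMC.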

SMILES | IC50 [nM]
O=C(NO)C(c1ccccc1)c1nnc(-c2ccc3ccccc3c2)s1 (centres unmarked) [Compound 5-54, N-hydroxy-2-(5-(naphthalen-2-yl)-1,3,4-thiadiazol-2-yl)-2-phenylacetamide] | 1000 to 15000
CC(COc1ccc(C(C(=O)NO)c2ccccc2)cc1)CN(C)C (centres unmarked) [Compound 3-18, 2-(4-(3-(dimethylamino)-2-methylpropoxy)phenyl)-N-hydroxy-2-phenylacetamide] | 1000 to 15000
COc1cccc(C(C(=O)NO)c2ccccc2)c1 (centres unmarked) [Compound 3-21, N-hydroxy-2-(3-methoxyphenyl)-2-phenylacetamide] | 1000 to 15000
O=C(NO)C(c1ccccc1)c1ccc(-n2ccc3ccccc32)cc1 (centres unmarked) [Compound 5-81, 2-(4-(1H-indol-1-yl)phenyl)-N-hydroxy-2-phenylacetamide] | < 1000
CC(=O)ONC(=O)C(c1ccccc1)c1ccc(N2CCOCC2)cc1 (centres unmarked) [Compound 5-117, N-acetoxy-2-(4-morpholinophenyl)-2-phenylacetamide] | 1000 to 15000
O=C(NO)C(c1ccccc1)N1Cc2ccccc2C1 (centres unmarked) [Compound 1-22, N-hydroxy-2-(isoindolin-2-yl)-2-phenylacetamide] | 1000 to 15000
O=C(NO)C(c1ccccc1)N1CCC(Oc2ccccc2)CC1 (centres unmarked) [Compound 1-43, N-hydroxy-2-(4-phenoxypiperidin-1-yl)-2-phenylacetamide] | < 1000
O=C(NO)C(c1ccccc1)c1ccc(C#CCN2CCS(=O)(=O)CC2)cc1 (centres unmarked) [Compound 5-91] | < 1000
CCCc1cccc(C(C(=O)NO)c2ccccc2)c1 (centres unmarked) [Compound 2-101, N-hydroxy-2-phenyl-2-(3-propylphenyl)acetamide] | < 1000
O=C(NO)C(c1ccccc1)c1cccc(NCc2ccccn2)c1 (centres unmarked) [Compound 3-74, N-hydroxy-2-phenyl-2-(3-(pyridin-2-ylmethylamino)phenyl)acetamide] | < 1000
O=C(Nc1cccc(C(C(=O)NO)c2ccccc2)c1)c1ccnc(Cl)c1 (centres unmarked) [Compound 3-14, 2-chloro-N-(3-(2-(hydroxyamino)-2-oxo-1-phenylethyl)phenyl)isonicotinamide] | 1000 to 15000
O=C(NO)C(c1ccccc1)c1nnc(-c2ccc3c(c2)OCO3)s1 (centres unmarked) [Compound 5-38, 2-(5-(benzo[d][1,3]dioxol-5-yl)-1,3,4-thiadiazol-2-yl)-N-hydroxy-2-phenylacetamide] | < 1000
O=C(NO)C(c1ccccc1)c1nc2cc(Cl)c(F)cc2[nH]1 (centres unmarked) [Compound 1-25, 2-(5-chloro-6-fluoro-1H-benzo[d]imidazol-2-yl)-N-hydroxy-2-phenylacetamide] | 1000 to 15000
O=C(NO)C(c1ccccc1)c1ccc(-c2ccc(Oc3ccccc3)cc2)cc1 (centres unmarked) [Compound 2-117, N-hydroxy-2-(4′-phenoxybiphenyl-4-yl)-2-phenylacetamide] | < 1000
CC(C)CCCOc1ccc(C(C(=O)NO)c2ccccc2)cc1 (centres unmarked) [Compound 3-56, N-hydroxy-2-(4-(4-methylpentyloxy)phenyl)-2-phenylacetamide] | < 1000
O=C(NO)C(c1ccccc1)c1cccc(OCCc2ccccc2)c1 (centres unmarked) [Compound 2-7, N-hydroxy-2-(3-phenethoxyphenyl)-2-phenylacetamide] | 1000 to 15000
O=C(NO)C(Sc1ccc(-c2ccccc2)cc1)c1ccccc1 (centres unmarked) [Compound 1-46, 2-(biphenyl-4-ylthio)-N-hydroxy-2-phenylacetamide] | < 1000
O=C(NO)C(c1ccccc1)c1ccc(OC2CCCC2)cc1 (centres unmarked) [Compound 3-53, 2-(4-(cyclopentyloxy)phenyl)-N-hydroxy-2-phenylacetamide] | < 1000
O=C(NO)C(c1ccccc1)c1ccc(-c2ccc3[nH]ccc3c2)cc1 (centres unmarked) [Compound 5-41, 2-(4-(1H-indol-5-yl)phenyl)-N-hydroxy-2-phenylacetamide] | < 1000
O=C(NO)C(Sc1nc2cccnc2s1)c1ccccc1 (centres unmarked) [Compound 5-46, N-hydroxy-2-phenyl-2-(thiazolo[5,4-b]pyridin-2-ylthio)acetamide] | < 1000
Cn1cnc(S(=O)(=O)N2CCN(C(C(=O)NO)c3ccccc3)CC2)c1 (centres unmarked) [Compound 2-38, N-hydroxy-2-(4-(1-methyl-1H-imidazol-4-ylsulfonyl)piperazin-1-yl)-2-phenylacetamide] | < 1000
O=C(NO)C(c1ccc(F)cc1)c1ccc(F)cc1 [Compound 1-18, 2,2-bis(4-fluorophenyl)-N-hydroxyacetamide] | < 1000
Nc1ccccc1NC(=O)c1ccc(C(C(=O)NO)c2ccccc2)cc1 (centres unmarked) [Compound 5-108, N-(2-aminophenyl)-4-(2-(hydroxyamino)-2-oxo-1-phenylethyl)benzamide] | < 1000
O=C(NO)C(c1ccccc1)N1CCC(c2cn(Cc3ccccc3)c3ccccc23)CC1 (centres unmarked) [Compound 5-17, 2-(4-(1-benzyl-1H-indol-3-yl)piperidin-1-yl)-N-hydroxy-2-phenylacetamide] | < 1000
O=C(NO)C(c1ccccc1)N1CCOCC1 (centres unmarked) [Compound 5-113b, N-hydroxy-2-morpholino-2-phenylacetamide] | 1000 to 15000

SMILES | IC50 [nM]
O=C(NO)C(c1ccccc1)c1ccc(N2CCN(Cc3ccccc3)CC2)cc1 (centres unmarked) [Compound 5-65, 2-(4-(4-benzylpiperazin-1-yl)phenyl)-N-hydroxy-2-phenylacetamide] | < 1000
CCCC(=O)ONC(=O)C(c1ccccc1)c1ccc(N2CCOCC2)cc1 (centres unmarked) [Compound 5-128, N-(butyryloxy)-2-(4-morpholinophenyl)-2-phenylacetamide] | 1000 to 15000
O=C(NO)C(c1ccccc1)c1nnc(-c2ccc3[nH]ccc3c2)s1 (centres unmarked) [Compound 5-55, 2-(5-(1H-indol-5-yl)-1,3,4-thiadiazol-2-yl)-N-hydroxy-2-phenylacetamide] | < 1000
O=C(NO)C(c1ccccc1)N1CCN(c2ccc(C(F)(F)F)cn2)CC1 (centres unmarked) [Compound 5-48, N-hydroxy-2-phenyl-2-(4-(5-(trifluoromethyl)pyridin-2-yl)piperazin-1-yl)acetamide] | < 1000
COCCN1CCN(c2ccc(C(C(=O)NO)c3ccccc3)cc2)CC1 (centres unmarked) [Compound 5-100, N-hydroxy-2-(4-(4-(2-methoxyethyl)piperazin-1-yl)phenyl)-2-phenylacetamide] | < 1000
COc1ccc(N2CCN(c3ccc(C(C(=O)NO)c4ccccc4)cc3)CC2)cc1 (centres unmarked) [Compound 5-84, N-hydroxy-2-(4-(4-(4-methoxyphenyl)piperazin-1-yl)phenyl)-2-phenylacetamide] | < 1000
O=C(NO)C(c1ccc(N2CCOCC2)cc1)c1cccc(O)c1 (centres unmarked) [Compound 6-23, N-hydroxy-2-(3-hydroxyphenyl)-2-(4-morpholinophenyl)acetamide] | < 1000
O=C(NO)C(c1ccccc1)c1ccc(-c2cccc3ccccc23)cc1 (centres unmarked) [Compound 5-13, N-hydroxy-2-(4-(naphthalen-1-yl)phenyl)-2-phenylacetamide] | < 1000
CCC(CC)COc1ccc(C(C(=O)NO)c2ccccc2)cc1 (centres unmarked) [Compound 3-55, 2-(4-(2-ethylbutoxy)phenyl)-N-hydroxy-2-phenylacetamide] | < 1000
O=C(NO)C(c1ccccc1)c1ccc(N2CCN(C(=O)OCc3ccccc3)CC2)cc1 (centres unmarked) [Compound 5-75, benzyl 4-(4-(2-(hydroxyamino)-2-oxo-1-phenylethyl)phenyl)piperazine-1-carboxylate] | < 1000
CC(C)CC(=O)Nc1ccc(C(C(=O)NO)c2ccccc2)cc1 (centres unmarked) [Compound 2-53, N-(4-(2-(hydroxyamino)-2-oxo-1-phenylethyl)phenyl)-3-methylbutanamide] | < 1000
CCC(CC)COc1cccc(C(C(=O)NO)c2ccccc2)c1 (centres unmarked) [Compound 3-31, 2-(3-(2-ethylbutoxy)phenyl)-N-hydroxy-2-phenylacetamide] | 1000 to 15000
N#Cc1ccccc1COc1ccc(C(C(=O)NO)c2ccccc2)cc1 (centres unmarked) [Compound 3-61, 2-(4-(2-cyanobenzyloxy)phenyl)-N-hydroxy-2-phenylacetamide] | < 1000
O=C(NO)C(c1ccccc1)c1ccc(OCC2CCCCC2)cc1 (centres unmarked) [Compound 3-57, 2-(4-(cyclohexylmethoxy)phenyl)-N-hydroxy-2-phenylacetamide] | < 1000
O=C(NO)C(c1ccc(F)cc1)c1cccc(-c2ccccc2)c1 (centres unmarked) [Compound 5-89, 2-(biphenyl-3-yl)-2-(4-fluorophenyl)-N-hydroxyacetamide] | < 1000
O=C(NO)C(c1ccccc1)c1cccc(-c2ccc(Cl)cc2)c1 (centres unmarked) [Compound 2-103, 2-(4′-chlorobiphenyl-3-yl)-N-hydroxy-2-phenylacetamide] | < 1000
Cc1cc(-c2ccc(C(C(=O)NO)c3ccccc3)cc2)ccc1F (centres unmarked) [Compound 5-45, 2-(4′-fluoro-3′-methylbiphenyl-4-yl)-N-hydroxy-2-phenylacetamide] | < 1000
O=C(NO)C(c1ccccc1)N1CCN(c2ccccc2)CC1 (centres unmarked) [Compound 1-16, N-hydroxy-2-phenyl-2-(4-phenylpiperazin-1-yl)acetamide] | < 1000
O=C(NO)C(c1ccccc1)c1ccc(Oc2ccccc2)cc1 (centres unmarked) [Compound 5-111, N-hydroxy-2-(4-phenoxyphenyl)-2-phenylacetamide] | < 1000
Cc1ccc(OC(C(=O)NO)c2ccccc2)c2c1CCC2 (centres unmarked) [Compound 7-35, N-hydroxy-2-(7-methyl-2,3-dihydro-1H-inden-4-yloxy)-2-phenylacetamide] | 1000 to 15000
O=C(COc1ccccc1)Nc1ccc(C(C(=O)NO)c2ccccc2)cc1 (centres unmarked) [Compound 2-67, N-hydroxy-2-(4-(2-phenoxyacetamido)phenyl)-2-phenylacetamide] | < 1000
CC(C)Oc1ccc(C(C(=O)NO)c2ccccc2)cc1 (centres unmarked) [Compound 3-47, N-hydroxy-2-(4-isopropoxyphenyl)-2-phenylacetamide] | < 1000
O=C(NO)C(c1ccccc1)c1nnc(-c2cccs2)s1 (centres unmarked) [Compound 5-4, N-hydroxy-2-phenyl-2-(5-(thiophen-2-yl)-1,3,4-thiadiazol-2-yl)acetamide] | < 1000
O=C(NO)C(c1ccc(N2CCOCC2)cc1)c1cccc(F)c1F (centres unmarked) [Compound 6-22] | < 1000
O=C(NO)C(c1ccccc1)N1CCN(c2ccc(F)cc2)CC1 (centres unmarked) [Compound 5-57, 2-(4-(4-fluorophenyl)piperazin-1-yl)-N-hydroxy-2-phenylacetamide] | 1000 to 15000
